Several values for one entry are separate records, joined by “and”; a condition that tells them apart may be missing. Equal values may be shown once.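 A five-concentration, 48-hour dose response in 96-well plates underlies each endpoint, interpolated linearly between surrounding concentrations. GI50 is the concentration that inhibits growth by half. The concentration for full growth arrest is given as TGI.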
Experiments:
Test in all cases: NCI anticancer screen, dose series, 48 h
786-0 renal = test system: 786-0 renal
A498 renal = test system: A498 renal
A549 NSCLC = test system: A549 NSCLC
ACHN renal = test system: ACHN renal
CAKI-1 renal = test system: CAKI-1 renal
CCRF-CEM leukemia = test system: CCRF-CEM leukemia
COLO 205 colon = test system: COLO 205 colon
DLD-1 colon = test system: DLD-1 colon
DMS 114 small cell lung = test system: DMS 114 small cell lung
DMS 273 small cell lung = test system: DMS 273 small cell lung
EKVX NSCLC = test system: EKVX NSCLC
HCC-2998 colon = test system: HCC-2998 colon
HCT-116 colon = test system: HCT-116 colon
HCT-15 colon = test system: HCT-15 colon
HL-60(TB) leukemia = test system: HL-60(TB) leukemia
HOP-18 NSCLC = test system: HOP-18 NSCLC
HOP-62 NSCLC = test system: HOP-62 NSCLC
HOP-92 NSCLC = test system: HOP-92 NSCLC
HT29 colon = test system: HT29 colon
IGROV1 ovarian = test system: IGROV1 ovarian
K-562 leukemia = test system: K-562 leukemia
KM12 colon = test system: KM12 colon
KM20L2 colon = test system: KM20L2 colon
LOX IMVI melanoma = test system: LOX IMVI melanoma
LXFL 529 NSCLC = test system: LXFL 529 NSCLC
M14 melanoma = test system: M14 melanoma
M19-MEL melanoma = test system: M19-MEL melanoma
MALME-3M melanoma = test system: MALME-3M melanoma
MOLT-4 leukemia = test system: MOLT-4 leukemia
NCI-H226 lung = test system: NCI-H226 lung
NCI-H23 lung = test system: NCI-H23 lung
NCI-H460 lung = test system: NCI-H460 lung
NCI-H522 lung = test system: NCI-H522 lung
OVCAR-3 ovarian = test system: OVCAR-3 ovarian
OVCAR-4 ovarian = test system: OVCAR-4 ovarian
OVCAR-5 ovarian = test system: OVCAR-5 ovarian
OVCAR-8 ovarian = test system: OVCAR-8 ovarian
RPMI-8226 leukemia = test system: RPMI-8226 leukemia
RXF 393 renal = test system: RXF 393 renal
RXF-631 renal = test system: RXF-631 renal
SF-268 CNS = test system: SF-268 CNS
SF-295 CNS = test system: SF-295 CNS
SF-539 CNS = test system: SF-539 CNS
SK-MEL-2 melanoma = test system: SK-MEL-2 melanoma
SK-MEL-28 melanoma = test system: SK-MEL-28 melanoma
SK-MEL-5 melanoma = test system: SK-MEL-5 melanoma
SK-OV-3 ovarian = test system: SK-OV-3 ovarian
SN12C renal = test system: SN12C renal
SNB-19 CNS = test system: SNB-19 CNS
SNB-75 CNS = test system: SNB-75 CNS
SNB-78 CNS = test system: SNB-78 CNS
SR leukemia = test system: SR leukemia
SW-620 colon = test system: SW-620 colon
TK-10 renal = test system: TK-10 renal
U251 CNS = test system: U251 CNS
UACC-257 melanoma = test system: UACC-257 melanoma
UACC-62 melanoma = test system: UACC-62 melanoma
UO-31 renal = test system: UO-31 renal
XF 498 CNS = test system: XF 498 CNS

Compound `COc1cc2ccc3c4c(OC)cc(OC)c(OC)c4c(=O)n(C)c3c2cc1OC` has a GI50 (786-0 renal) of 1.78 µM, a TGI (A498 renal) of 16.7 µM and a GI50 (A549 NSCLC) of 1.18 µM. The TGI (A549 NSCLC) was 16.7 µM and > 35.8 µM, the GI50 (ACHN renal) was 4.88 µM and the TGI (ACHN renal) was 16.7 µM and > 44.7 µM. The GI50 (CAKI-1 renal) was 6.83 µM, the TGI (CAKI-1 renal) was 16.7 µM and > 44.2 µM and the GI50 (CCRF-CEM leukemia) was 0.486 µM. The TGI (CCRF-CEM leukemia) was 2.04 µM, the GI50 (COLO 205 colon) was 1.3 µM and the TGI (COLO 205 colon) was 4.09 µM and 9.95 µM. The GI50 (DLD-1 colon) was 1.8 µM, the TGI (DLD-1 colon) was 4.14 µM and > 33.5 µM and the GI50 (DMS 114 small cell lung) was 1.87 µM. For the same compound, the TGI (DMS 114 small cell lung) was 16.7 µM and 26.6 µM, the GI50 (DMS 273 small cell lung) was 22.2 µM and the GI50 (EKVX NSCLC) was 5.65 µM. For the same compound, the TGI (EKVX NSCLC) was 16.7 µM and > 48.7 µM, the TGI (HCC-2998 colon) was > 36.1 µM and the GI50 (HCT-116 colon) was 0.455 µM. The GI50 (HCT-15 colon) was 1.87 µM, the GI50 (HL-60(TB) leukemia) was 0.351 µM and the TGI (HL-60(TB) leukemia) was 1.16 µM. The TGI (HOP-18 NSCLC) was > 100 µM, the GI50 (HOP-62 NSCLC) was 1.4 µM and the TGI (HOP-62 NSCLC) was 7.11 µM and > 43.5 µM. For the same compound, the GI50 (HOP-92 NSCLC) was 1.55 µM, the TGI (HOP-92 NSCLC) was 16.7 µM and 40.4 µM and the GI50 (HT29 colon) was 1.75 µM. The TGI (HT29 colon) was 4.77 µM, the TGI (IGROV1 ovarian) was 16.7 µM and > 45.6 µM and the GI50 (K-562 leukemia) was 0.303 µM. For the same compound, the GI50 (KM12 colon) was 0.548 µM, the TGI (KM12 colon) was 2.57 µM and the GI50 (KM20L2 colon) was 0.446 µM. The GI50 (LOX IMVI melanoma) was 1.53 µM, the TGI (LOX IMVI melanoma) was 3.8 µM and the GI50 (LXFL 529 NSCLC) was 0.766 µM. For the same compound, the TGI (LXFL 529 NSCLC) was 2.86 µM and > 26.8 µM, the GI50 (M14 melanoma) was 2.28 µM and the TGI (M14 melanoma) was 7.91 µM and > 33.9 µM. The GI50 (M19-MEL melanoma) was 3.7 µM, the TGI (M19-MEL melanoma) was 16.7 µM and > 40.9 µM and the GI50 (MALME-3M melanoma) was 13.4 µM. The TGI (MALME-3M melanoma) was 16.7 µM and > 49.6 µM, the GI50 (MOLT-4 leukemia) was 0.591 µM and the TGI (MOLT-4 leukemia) was 10.2 µM and 3.79 µM. The TGI (NCI-H226 lung) was > 42 µM, the GI50 (NCI-H23 lung) was 2.09 µM and the TGI (NCI-H23 lung) was 16.7 µM and > 46 µM. For the same compound, the TGI (NCI-H460 lung) was > 33.5 µM, the GI50 (NCI-H522 lung) was 0.745 µM and the TGI (NCI-H522 lung) was 10.9 µM and > 32.8 µM. The GI50 (OVCAR-3 ovarian) was 0.755 µM, the TGI (OVCAR-3 ovarian) was 7.02 µM and > 40.5 µM and the GI50 (OVCAR-4 ovarian) was 2.67 µM. The TGI (OVCAR-4 ovarian) was 8.32 µM and > 45.8 µM, the TGI (OVCAR-5 ovarian) was 23.1 µM and the GI50 (OVCAR-8 ovarian) was 0.451 µM. For the same compound, the GI50 (RPMI-8226 leukemia) was 0.245 µM, the TGI (RPMI-8226 leukemia) was 2.15 µM and 1.65 µM and the GI50 (RXF 393 renal) was 3.44 µM. The TGI (RXF 393 renal) was 16.7 µM and > 44.7 µM, the GI50 (RXF-631 renal) was 0.495 µM and the GI50 (SF-268 CNS) was 1.13 µM. For the same compound, the TGI (SF-268 CNS) was 10.7 µM and > 21.2 µM, the GI50 (SF-295 CNS) was 0.809 µM and the TGI (SF-295 CNS) was 2.89 µM and > 22.4 µM. The GI50 (SF-539 CNS) was 2.74 µM, the TGI (SF-539 CNS) was 10.5 µM and > 47.4 µM and the GI50 (SK-MEL-2 melanoma) was 3.29 µM. For the same compound, the TGI (SK-MEL-2 melanoma) was 16.7 µM and > 47.6 µM, the GI50 (SK-MEL-28 melanoma) was 8.01 µM and the TGI (SK-MEL-28 melanoma) was 16.7 µM and > 48.5 µM. The GI50 (SK-MEL-5 melanoma) was 4.11 µM, the TGI (SK-MEL-5 melanoma) was 16.7 µM and 35.1 µM and the TGI (SK-OV-3 ovarian) was > 47.8 µM. The GI50 (SN12C renal) was 0.532 µM, the TGI (SNB-19 CNS) was > 51.7 µM and the GI50 (SNB-75 CNS) was 3.25 µM. For the same compound, the TGI (SNB-75 CNS) was 14.5 µM and > 42.5 µM, the TGI (SNB-78 CNS) was 32.5 µM and the TGI (SR leukemia) was 2.97 µM. For the same compound, the GI50 (SW-620 colon) was 1.05 µM, the TGI (SW-620 colon) was 4.43 µM and the GI50 (TK-10 renal) was > 16.7 µM. The TGI (TK-10 renal) was > 54.6 µM, the GI50 (U251 CNS) was 0.299 µM and the TGI (U251 CNS) was 3.71 µM and 10.6 µM. For the same compound, the GI50 (UACC-257 melanoma) was 3.09 µM, the TGI (UACC-257 melanoma) was 16.7 µM and > 49.2 µM and the GI50 (UACC-62 melanoma) was > 16.7 µM. The TGI (UACC-62 melanoma) was > 47.3 µM, the TGI (UO-31 renal) was > 48.9 µM and the GI50 (XF 498 CNS) was 5.27 µM. For the same compound, the TGI (XF 498 CNS) was 7.16 µM and 61.2 µM.

Source: PubChem BioAssay (NCI)
